Measured values as given in the supplement of paper PMC8617591.

How the values were obtained:
[1] = test system: Mycobacterium tuberculosis Erdman (autoluminescent); assay: FIC90 (Loewe) at 90% inhibition (log2); higher = more antagonistic
Description: (§1)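 DiaMOND equipotent two-drug combination dose responses against autoluminescent M. tuberculosis Erdman in 8 in vitro models. Read-out is OD600, or luminescence for the intracellular and dormancy models, normalised to untreated wells. Hill-fit Einf, AUC25 and GRinf are potency metrics; FIC50 and FIC90 are Loewe-additivity fractional inhibitory concentrations, given as log2 (negative = synergy). Replicates are averaged.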

[2] = test system: Mycobacterium tuberculosis Erdman (autoluminescent); assay: FIC50 (Loewe) at 50% inhibition (log2); higher = more antagonistic
Description: as §1

[3] = test system: Mycobacterium tuberculosis Erdman (autoluminescent); assay: Einf, fitted maximum growth inhibition of combination (fraction); higher = stronger maximal inhibition
Description: as §1

[4] = test system: Mycobacterium tuberculosis Erdman (autoluminescent); assay: AUC25, normalised area under dose response up to IC25 (fraction (0-1)); higher = more potent at low dose
Description: as §1

[5] = test system: Mycobacterium tuberculosis Erdman (autoluminescent); assay: GRinf, maximum normalised growth rate inhibition (unitless (-1 to 1)); higher = less effect (negative = killing)
Description: as §1

COc1nc2ccc(Br)cc2cc1[C@@H](c1ccccc1)[C@@](O)(CCN(C)C)c1cccc2ccccc12 [bedaquiline] + COc1c(N2C[C@@H]3CCCN[C@@H]3C2)c(F)cc2c(=O)c(C(=O)O)cn(C3CC3)c12 [moxifloxacin]
Settings | AUC25, [4] | Einf, [3] | FIC50, [2] | FIC90, [1] | GRinf, [5]
in vitro model: acidic pH 5.7, time point: constant (~7 days, model-specific) | 0.111 | 0.834 | 0.282 | – | -0.5
in vitro model: acidic pH 5.7, time point: terminal (~4-5 doublings, model-specific) | 0.0707 | 0.974 | 0.69 | 0.144 | -0.382
in vitro model: intracellular J774, time point: constant = terminal | – | 0.975 | – | 0.878 | -0.309

Settings | AUC25, [4] | Einf, [3] | FIC50, [2] | FIC90, [1] | GRinf, [5]
in vitro model: butyrate, time point: constant (~7 days, model-specific) | 0.092 | 0.966 | 0.816 | 0.849 | -0.175
in vitro model: butyrate, time point: terminal (~4-5 doublings, model-specific) | 0.059 | 0.981 | 0.823 | 0.833 | -0.131
in vitro model: cholesterol 0.05 mM, time point: constant (~7 days, model-specific) | 0.112 | 0.777 | 0.158 | – | -0.237
in vitro model: cholesterol 0.05 mM, time point: terminal (~4-5 doublings, model-specific) | 0.0888 | 0.951 | 0.528 | 0.279 | -0.314
in vitro model: cholesterol-high 0.2 mM, time point: constant (~7 days, model-specific) | 0.0699 | 0.968 | 0.333 | 0.255 | -0.699
in vitro model: cholesterol-high 0.2 mM, time point: terminal (~4-5 doublings, model-specific) | 0.0477 | 1 | 0.532 | 0.271 | -0.644
in vitro model: dormancy (butyrate + nitrate, low O2), time point: constant (~7 days, model-specific) | 0.0664 | 0.921 | 0.814 | 0.437 | 0.176
in vitro model: dormancy (butyrate + nitrate, low O2), time point: terminal (~4-5 doublings, model-specific) | 0.0916 | 0.982 | 0.702 | 1.39 | -0.143
in vitro model: standard 7H9 glycerol, time point: constant = terminal | 0.105 | 0.993 | 0.0351 | 0.704 | -0.102
in vitro model: valerate, time point: constant (~7 days, model-specific) | 0.0901 | 0.911 | 0.469 | – | -0.123
in vitro model: valerate, time point: terminal (~4-5 doublings, model-specific) | 0.0647 | 0.966 | 0.485 | 0.622 | -0.0943

COc1nc2ccc(Br)cc2cc1[C@@H](c1ccccc1)[C@@](O)(CCN(C)C)c1cccc2ccccc12 [bedaquiline] + NC(=O)c1cnccn1 [pyrazinamide]
Settings | AUC25, [4] | Einf, [3] | FIC50, [2] | FIC90, [1] | GRinf, [5]
in vitro model: acidic pH 5.7, time point: constant (~7 days, model-specific) | 0.0806 | 0.84 | -0.282 | -1.27 | -0.398
in vitro model: acidic pH 5.7, time point: terminal (~4-5 doublings, model-specific) | 0.0795 | 0.985 | -0.0485 | -0.613 | -0.351
in vitro model: intracellular J774, time point: constant = terminal | – | 0.99 | – | 0.411 | -0.387

Settings | AUC25, [4] | Einf, [3] | FIC50, [2] | FIC90, [1] | GRinf, [5]
in vitro model: butyrate, time point: constant (~7 days, model-specific) | 0.124 | 0.969 | 0.033 | 0.896 | -0.595
in vitro model: butyrate, time point: terminal (~4-5 doublings, model-specific) | 0.106 | 0.991 | 0.262 | 1.12 | -0.941
in vitro model: cholesterol 0.05 mM, time point: constant (~7 days, model-specific) | 0.101 | 0.746 | – | – | -0.259
in vitro model: cholesterol 0.05 mM, time point: terminal (~4-5 doublings, model-specific) | 0.0985 | 0.949 | 0.282 | – | -0.43
in vitro model: cholesterol-high 0.2 mM, time point: constant (~7 days, model-specific) | 0.0781 | 0.978 | 0.168 | – | -0.543
in vitro model: cholesterol-high 0.2 mM, time point: terminal (~4-5 doublings, model-specific) | 0.0705 | 1 | 0.224 | 0.208 | -0.654
in vitro model: dormancy (butyrate + nitrate, low O2), time point: constant (~7 days, model-specific) | 0.0588 | 0.919 | -1.06 | -1.22 | 0.131
in vitro model: dormancy (butyrate + nitrate, low O2), time point: terminal (~4-5 doublings, model-specific) | 0.0543 | 0.98 | -0.504 | -0.991 | -0.121
in vitro model: standard 7H9 glycerol, time point: constant = terminal | 0.072 | 0.943 | -0.45 | – | -0.0583
in vitro model: valerate, time point: constant (~7 days, model-specific) | 0.0845 | 0.896 | 0.247 | – | -0.0105
in vitro model: valerate, time point: terminal (~4-5 doublings, model-specific) | 0.057 | 0.943 | 0.318 | 0.391 | 0.0136
